Experimental data from US20260109707A1, “HETEROBIFUNCTIONAL COMPOUNDS AND METHODS OF TREATING DISEASE” (Halda Therapeutics OpCo. Inc., priority 2022, published 2026).
Read-outs that look alike come from different tables or passages of the source.

Columns and labels:
[1] = test system: T-Rex 293 cell line SC3 cells having increased expression of androgen receptor protein due to exposure to doxycycline; test: Cellular growth inhibition assay, T-Rex 293 SC3 cells with doxycycline (CellTiter-Glo, 72 hours); format: cell-based; settings: T-Rex 293 SC3 cells with increased androgen receptor expression due to doxycycline (10 ng/mL)
In short: (§1)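 Growth inhibition is measured in an inducible AR-expressing T-Rex 293 clone, SC3, cultured with or without 10 ng/mL doxycycline in hormone-depleted medium. Test compounds are applied for 72 hours. GI50 values derive from CellTiter-Glo 2.0 signal fitted by four-parameter regression.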

VCaP cells = test: Cellular growth inhibition assay for VCaP cells (CellTiter-Glo, 72 hours); format: cell-based, human
Protocol: VCaP cells were purchased from American Type Cell Culture (ATCC Cat #CRL2876) and then seeded on poly-D-lysine coated, black clear-bottom 384-well plates at 5000/well in 25 μL Dulbecco's Modified Eagle Medium (DMEM) supplemented with 10% w/w Fetal bovine serum (FBS) and 1% w/w Pen-Strep. Pen-Strep is a commercially available mixture of penicillin G and streptomycin, which is used in mammalian cell culture media to prevent bacterial contamination. Dulbecco's Modified Eagle Medium (DMEM) supplemented with 10% w/w fetal bovine serum (FBS) and 1% w/w Pen-Strep is herein referred to as Treatment Medium. Following seeding of cells in the plates, the plates were spun at 300×g for 30 seconds, then equilibrated to room temperature for 30 minutes, and then deposited in a humidified tissue culture incubator maintained at 37° C. with 5% C0-2.
At 24 hours after seeding of the cells, dilutions of test compound were prepared in DMSO and dissolved in Treatment Medium, to achieve a final DMSO concentration of 0.5% w/w, thereby providing the Test Compound Solution. A 25 μL aliquot of the Test Compound Solution was added to cells in the well plates. An equal volume of a solution containing DMSO and Treatment Medium was used as a negative control. Following treatment of cells with Test Compound Solution or said equal volume of a solution containing DMSO and Treatment Medium, the plates were spun at 300×g for 30 seconds, and then left in an incubator for 72 hours.
At the end of the treatment duration, cell viability was quantified with CellTiter-Glo 2.0 reagent (Promega Cat #G9243). For this purpose, plates were equilibrated to room temperature for 30 minutes, and then 25 μL of CellTiter-Glo 2.0 reagent was added to cells in the plate wells. Plates were then agitated on a shaker for two minutes at 500 rpm and subsequently incubated at room temperature for 10 minutes. Following incubation, the plates were spun at 3000×g for 30 seconds, then sealed with an optical adhesive cover, and luminescence readings were measured with an EnVision Plate Reader.
Data was normalized using zero luminescence for baseline. A four-parameter non-linear regression curve fit was applied to dose-response data in GraphPad Prism data analysis software to determine the half-maximal growth inhibitory concentration (GI50) for each test compound.

[2] = test system: T-Rex 293 cell line SC3 cells lacking increased expression of androgen receptor protein; test: Cellular growth inhibition assay, T-Rex 293 SC3 cells without doxycycline (CellTiter-Glo, 72 hours); format: cell-based; settings: T-Rex 293 cell line SC3 cells not exposed to doxycycline (lacking increased androgen receptor expression)
In short: as §1

| SMILES | GI50 ([1]; 72 h) [nM] | GI50 (VCaP cells) [nM] | GI50 ([2]; 72 h) [nM] | GI50 (VCaP cells; Homo sapiens, VCaP, 72 h) [nM] | GI50 [2] [nM] | GI50 [1] [nM] |
| --- | --- | --- | --- | --- | --- | --- |
| Cc1sc2c(c1C)C(c1ccc(C3CCC4(CC3)CCN(c3ccc(C(=O)N[C@H]5CC[C@H](Oc6ccc(C#N)c(Cl)c6)CC5)nn3)C4)nc1)=N[C@@H](C)c1nnc(C)n1-2 (stereo partly drawn) [I-533] | < 500 | < 500 | < 500 | – | – | – |
| Cc1sc2c(c1C)C(c1ccc(OCC3CCC4(CCCN(c5ccc(C(=O)N[C@H]6CC[C@H](Oc7ccc(C#N)c(Cl)c7)CC6)nn5)C4)C3)cc1)=N[C@@H](C)c1nnc(C)n1-2 (stereo partly drawn) [I-626] | < 500 | – | < 500 | < 500 | – | – |
| Cc1sc2c(c1C)C(c1cccc(OC3CCC4(CC3)CCN(c3ccc(C(=O)N[C@H]5CC[C@H](Oc6ccc(C#N)c(Cl)c6)CC5)nn3)C4)c1)=N[C@@H](C)c1nnc(C)n1-2 (stereo partly drawn) [I-747] | < 500 | < 500 | – | – | < 500 | – |
| Cc1sc2c(c1C)C(c1ccc(OC3(C)CC4(CN(c5ccc(C(=O)N[C@H]6CC[C@H](Oc7ccc(C#N)c(Cl)c7)CC6)nn5)C4)C3)cc1)=N[C@@H](C)c1nnc(C)n1-2 [I-595] | < 500 | – | < 500 | 500 to 1500 | – | – |
| Cc1sc2c(c1C)C(c1ccccc1OC1CCC3(CC1)CCN(c1ccc(C(=O)N[C@H]4CC[C@H](Oc5ccc(C#N)c(Cl)c5)CC4)nn1)C3)=N[C@@H](C)c1nnc(C)n1-2 (stereo partly drawn) [I-753] | – | < 500 | – | – | < 500 | < 500 |
| CCNC(=O)C[C@@H]1N=C(c2ccc(N3CC(N(C)C4CCN(c5ccc(C(=O)N[C@H]6CC[C@H](Oc7ccc(C#N)c(Cl)c7)CC6)nn5)CC4)C3)cc2)c2c(sc(C)c2C)-n2c(C)nnc21 [I-62] | < 500 | – | > 3000 | < 500 | – | – |
| COCC1N=C(c2ccc(C#CC3CC4(C3)CN(c3ccc(C(=O)N[C@H]5CC[C@H](Oc6ccc(C#N)c(Cl)c6)CC5)nn3)C4)cc2)c2c(sc(C)c2C)-n2c(C)nnc21 (stereo partly drawn) [I-570] | < 500 | – | – | < 500 | > 3000 | – |
| Cc1sc2c(c1C)C(c1ccc(OCC3CCC4(C3)CN(c3ccc(C(=O)N[C@H]5CC[C@H](Oc6ccc(C#N)c(Cl)c6)CC5)nn3)CCO4)cc1)=N[C@@H](C)c1nnc(C)n1-2 (stereo partly drawn) [I-667] | < 500 | < 500 | – | – | < 500 | – |
| Cc1sc2c(c1C)C(c1ccc(OC3CCC4(CCCN(c5ccc(C(=O)N[C@H]6CC[C@H](Oc7ccc(C#N)c(Cl)c7)CC6)nn5)C4)C3)cc1)=N[C@@H](C)c1nnc(C)n1-2 (stereo partly drawn) [I-536] | < 500 | > 3000 | > 3000 | – | – | – |
| CC[C@@H]1N=C(c2ccc(N3CCC4(CCN(c5ccc(C(=O)N[C@H]6CC[C@H](Oc7ccc(C#N)c(Cl)c7)CC6)nn5)CC4)C3)cc2)c2c(sc(C)c2C)-n2c(C)nnc21 [I-599] | < 500 | – | > 3000 | > 3000 | – | – |
| COC[C@@H]1N=C(c2ccc(C3CCC4(CCN(c5ccc(C(=O)N[C@H]6CC[C@H](Oc7ccc(C#N)c(Cl)c7)CC6)nn5)CC4)C3)cc2)c2c(sc(C)c2C)-n2c(C)nnc21 (stereo partly drawn) [I-659] | – | < 500 | – | – | < 500 | < 500 |
| Cc1sc2c(c1C)C(c1ccc(C3CCC4(CCN(c5ccc(C(=O)N[C@H]6CC[C@H](Oc7ccc(C#N)c(Cl)c7)CC6)nn5)CC4)C3)cc1)=NC(C(F)(F)F)c1nnc(C)n1-2 (stereo partly drawn) [I-759] | – | – | > 3000 | < 500 | – | > 3000 |
| Cc1sc2c(c1C)C(c1ccc(C3CCC4(CCCN(c5ccc(C(=O)N[C@H]6CC[C@H](Oc7ccc(C#N)c(Cl)c7)CC6)nn5)C4)CC3)cc1)=NC(C(F)(F)F)c1nnc(C)n1-2 (stereo partly drawn) [I-697] | – | > 3000 | – | – | > 3000 | > 3000 |
| Cc1sc2c(c1C)C(c1ccc(C3CCC4(CCN(c5ccc(C(=O)N[C@H]6CC[C@H](Oc7ccc(C#N)c(Cl)c7)CC6)nn5)CC4)C3)cc1)=NC(C(F)(F)F)c1nnc(C)n1-2 (stereo partly drawn) [I-760] | – | < 500 | – | – | > 3000 | < 500 |
| Cc1sc2c(c1C)C(c1ccc(C3CCC4(CCCN(c5ccc(C(=O)N[C@H]6CC[C@H](Oc7ccc(C#N)c(Cl)c7)CC6)nn5)C4)CC3)cc1)=NC(C(F)(F)F)c1nnc(C)n1-2 (stereo partly drawn) [I-694] | > 3000 | – | > 3000 | > 3000 | – | – |
| Cc1sc2c(c1C)C(c1ccc(C3CCC(CC4CCN(c5ccc(C(=O)N[C@H]6CC[C@H](Oc7ccc(C#N)c(Cl)c7)CC6)nn5)CC4)CC3)cc1)=NC1(CC1)c1nnc(C)n1-2 (stereo partly drawn) [I-756] | < 500 | – | – | < 500 | > 3000 | – |
| Cc1sc2c(c1C)C(c1ccc(C/C=C/C3CN(c4ccc(C(=O)N[C@H]5CC[C@H](Oc6ccc(C#N)c(Cl)c6)CC5)nn4)C3)cc1)=N[C@@H](Cc1ncco1)c1nnc(C)n1-2 [I-678] | < 500 | – | > 3000 | > 3000 | – | – |
| Cc1sc2c(c1C)C(c1ccc(N3CC(C4CCN(c5ccc(C(=O)N[C@H]6CC[C@H](Oc7ccc(C#N)c(Cl)c7)CC6)nn5)C4)C3)cc1)=NC1(CC1)c1nnc(C)n1-2 (stereo partly drawn) [I-550] | < 500 | – | – | < 500 | < 500 | – |
| Cc1sc2c(c1C)C(c1ccc(N3CCC4(CCN(c5ccc(C(=O)N[C@H]6CC[C@H](Oc7ccc(C#N)c(Cl)c7)CC6)nn5)C4)C3)cc1)=NC1(CC1)c1nnc(C)n1-2 (stereo partly drawn) [I-521] | < 500 | 1500 to 3000 | < 500 | – | – | – |
| Cc1sc2c(c1C)C(c1ccc(OC3CCC4(C3)CN(c3ccc(C(=O)N[C@H]5CC[C@H](Oc6ccc(C#N)c(Cl)c6)CC5)nn3)CCO4)cc1)=N[C@@H](C)c1nnc(C)n1-2 (stereo partly drawn) [I-540] | – | 1500 to 3000 | – | – | < 500 | < 500 |
| Cc1sc2c(c1C)C(c1cccc(CC3CCC4(CC3)CCN(c3ccc(C(=O)N[C@H]5CC[C@H](Oc6ccc(C#N)c(Cl)c6)CC5)nn3)C4)c1)=N[C@@H](C)c1nnc(C)n1-2 (stereo partly drawn) [I-714] | – | < 500 | – | – | < 500 | < 500 |
| Cc1sc2c(c1C)C(c1ccc(N3CC(CC4CCCN(c5ccc(C(=O)N[C@H]6CC[C@H](Oc7ccc(C#N)c(Cl)c7)CC6)nn5)C4)C3)cc1)=N[C@@H](C)c1nnc(C)n1-2 (stereo partly drawn) [I-577] | – | 500 to 1500 | – | – | < 500 | < 500 |
| Cc1sc2c(c1C)C(c1ccc(OC3CCC4(CCCN(c5ccc(C(=O)N[C@H]6CC[C@H](Oc7ccc(C#N)c(Cl)c7)CC6)nn5)C4)C3)cc1)=NC1(CC1)c1nnc(C)n1-2 (stereo partly drawn) [I-524] | – | > 3000 | – | – | > 3000 | < 500 |
| Cc1sc2c(c1C)C(c1ccc(OC3CCC4(C3)CN(c3ccc(C(=O)N[C@H]5CC[C@H](Oc6ccc(C#N)c(Cl)c6)CC5)nn3)CCO4)cc1)=NC1(CC1)c1nnc(C)n1-2 (stereo partly drawn) [I-508] | – | < 500 | – | – | > 3000 | < 500 |
| Cc1sc2c(c1C)C(c1cccc(CC3CC4(CCCN(c5ccc(C(=O)N[C@H]6CC[C@H](Oc7ccc(C#N)c(Cl)c7)CC6)nn5)C4)C3)c1)=N[C@@H](C)c1nnc(C)n1-2 (stereo partly drawn) [I-711] | < 500 | – | > 3000 | < 500 | – | – |
| COC[C@@H]1N=C(c2ccc(N3CCC4(CC3)CCN(c3ccc(C(=O)N[C@H]5CC[C@H](Oc6ccc(C#N)c(Cl)c6)CC5)nn3)C4)cc2)c2c(sc(C)c2C)-n2c(C)nnc21 [I-566] | < 500 | – | < 500 | < 500 | – | – |
| Cc1sc2c(c1C)C(c1ccc(N3CCC4CN(c5ccc(C(=O)N[C@H]6CC[C@H](Oc7ccc(C#N)c(Cl)c7)CC6)nn5)CCC4C3)cc1)=N[C@@H](C)c1nnc(C)n1-2 (stereo partly drawn) [I-620] | – | < 500 | – | – | < 500 | < 500 |
| Cc1sc2c(c1C)C(c1ccc(N3CC(CC4CCCN(c5ccc(C(=O)N[C@H]6CC[C@H](Oc7ccc(C#N)c(Cl)c7)CC6)nn5)C4)C3)cc1)=NC1(CC1)c1nnc(C)n1-2 (stereo partly drawn) [I-562] | – | > 3000 | < 500 | – | – | < 500 |
| Cc1sc2c(c1C)C(c1ccc(C#CC3CC4(C3)CN(c3ccc(C(=O)N[C@H]5CC[C@H](Oc6ccc(C#N)c(Cl)c6)CC5)nn3)C4)cc1F)=NC(Cc1ncco1)c1nnc(C)n1-2 (mixture of isomers) [I-828, N-[4-(3-chloro-4-cyano-phenoxy)cyclohexyl]-6-[6-[2-[3-fluoro-4-[4,5,13-trimethyl-9-(oxazol-2-ylmethyl)-3-thia-1,8,11,12-tetrazatricyclo[8.3.0.02,6]trideca-2(6),4,7,10,12-pentaen-7-yl]phenyl]ethynyl]-2-azaspiro[3.3]heptan-2-yl]pyridazine-3-carboxamide] | < 500 | – | < 500 | < 500 | – | – |
